# Laboratory results taken from article PMC7587356, “High-Throughput Screening for Inhibitors of the SARS-CoV-2 Protease Using a FRET-Biosensor” (Molecules, 2020).
# Counter-ions that a name gives are not always drawn. Like-named read-outs stand apart in the source and are kept apart here.
# Biological target: SARS-CoV-2 3CLpro (Severe acute respiratory syndrome coronavirus 2, UniProt P0DTD1)
# Test: biochemical
# Assay type: biochemical
# Design: Replicate_1 / Replicate_2 / mean / mean (LOPAC_screen_w_protease): unit not given here
# Conditions: for inhibition at 5 µM: 4 h
# [1] = sheet LOPAC_screen_w_protease, LOPAC1280 primary screen with protease, 5 µM compound, mean of the two replicates
# [2] = sheet LOPAC_screen_w_protease, LOPAC1280 primary screen with protease, 5 µM compound, replicate 1
# [3] = sheet LOPAC_screen_w_protease, LOPAC1280 primary screen with protease, 5 µM compound, replicate 2
# [4] = sheet LOPAC_screen_w_protease, LOPAC1280 primary screen at 5 µM, with protease, mean of the two replicates, read-out: mean
# [5] = sheet LOPAC_screen_w_protease, LOPAC1280 primary screen at 5 µM, with protease, replicate 1, read-out: Replicate_1
# [6] = sheet LOPAC_screen_w_protease, LOPAC1280 primary screen at 5 µM, with protease, replicate 2, read-out: Replicate_2
# [7] = sheet LOPAC_screen_w_protease, primary screen with protease, 5 µM, mean of two replicates
# [8] = sheet LOPAC_screen_w_protease, primary screen with protease, 5 µM, replicate 1
# [9] = sheet LOPAC_screen_w_protease, primary screen with protease, 5 µM, replicate 2
# [10] = sheet LOPAC_screen_w_protease, LOPAC1280 primary screen at 5 µM, with protease, mean of two replicates
# [11] = sheet LOPAC_screen_w_protease, LOPAC1280 primary screen at 5 µM, with protease, replicate 1
# [12] = sheet LOPAC_screen_w_protease, LOPAC1280 primary screen at 5 µM, with protease, replicate 2
# [13] = LOPAC1280 primary screen with protease, 5 µM compound, mean of two replicates
# [14] = LOPAC1280 primary screen with protease, 5 µM compound, replicate 1
# [15] = LOPAC1280 primary screen with protease, 5 µM compound, replicate 2
# [16] = LOPAC1280 primary screen with protease, 5 µM compound, mean of the two replicates
# [17] = sheet LOPAC_screen_w_protease, primary screen with protease, compound at 5 µM, mean of two replicates, read-out: mean
# [18] = sheet LOPAC_screen_w_protease, primary screen with protease, compound at 5 µM, replicate 1, read-out: Replicate_1
# [19] = sheet LOPAC_screen_w_protease, primary screen with protease, compound at 5 µM, replicate 2, read-out: Replicate_2
# [20] = LOPAC1280 primary screen with protease, 5 µM compound, replicate 1, read-out: Replicate_1 (LOPAC_screen_w_protease)
# [21] = LOPAC1280 primary screen with protease, 5 µM compound, replicate 2, read-out: Replicate_2 (LOPAC_screen_w_protease)
smiles,measurement,setting,value
Cl.Cl.Cn1cnc(CCN)c1 [1-Methylhistamine dihydrochloride],mean,[1],4.368
same,Replicate_1,[2],3.059
same,Replicate_2,[3],5.677
CN/C(=N\c1ccc(C2=NNC(=O)CC2C)cc1)NC#N (stereo not drawn) [SKF 94836],inhibition at 5 µM,[4],0.836%
same,inhibition at 5 µM,[5],1.39%
same,inhibition at 5 µM,[6],0.284%
O=c1ccn([C@@H]2O[C@H](COP(=O)([O-])OP(=O)([O-])O)[C@@H](O)[C@H]2O)c(=O)[nH]1.[Na+].[Na+] [Uridine 5'-diphosphate sodium],mean,[7],-0.3913
same,Replicate_1,[8],-1.155
same,Replicate_2,[9],0.3722
CCCn1c(=O)c2[nH]c(-c3ccc(OCC(=O)NCCN)cc3)nc2n(CCC)c1=O [Xanthine amine congener],mean,[10],-1.654
same,Replicate_1,[11],-1.399
same,Replicate_2,[12],-1.91
CC(C)(C)NC[C@H](O)COc1nsnc1N1CCOCC1.O=C(O)/C=C\C(=O)O [S(-)-Timolol maleate],mean,[7],0.01613
same,Replicate_1,[8],1.756
same,Replicate_2,[9],-1.724
CCCC(C)(COC(N)=O)COC(=O)NC(C)C (stereo not drawn) [Carisoprodol],inhibition at 5 µM,read-out: Replicate_1,-0.28%
same,inhibition at 5 µM,read-out: Replicate_2,2.2%
same,inhibition at 5 µM,read-out: mean,0.96%
Cc1ccc([N+](=O)[O-])cc1S(=O)(=O)N(C)C [BRL 50481],mean (LOPAC_screen_w_protease),[13],1.647
same,Replicate_1 (LOPAC_screen_w_protease),[14],1.025
same,Replicate_2 (LOPAC_screen_w_protease),[15],2.268
CP(=O)(O)CCCN.Cl [SKF 97541 hydrochloride],mean (LOPAC_screen_w_protease),[13],1.5203
same,Replicate_1 (LOPAC_screen_w_protease),[14],0.8621
same,Replicate_2 (LOPAC_screen_w_protease),[15],2.1785
Cl.O=C(Cc1ccc(Cl)c(Cl)c1)N1CCCCC1CN1CCCC1 (stereo not drawn) [BRL 52537 hydrochloride],mean (LOPAC_screen_w_protease),[13],1.672
same,Replicate_1 (LOPAC_screen_w_protease),[14],2.192
same,Replicate_2 (LOPAC_screen_w_protease),[15],1.152
"CC1(C)C(=O)N(CCN2CCC(C(=O)c3ccc(F)cc3)CC2)c2ccccc21.Cl [LY-310,762 hydrochloride]",mean (LOPAC_screen_w_protease),[13],1.717
same,Replicate_1 (LOPAC_screen_w_protease),[14],1.617
same,Replicate_2 (LOPAC_screen_w_protease),[15],1.816
O=C(CCc1ccc(O)cc1)c1c(O)cc(O)cc1O [Phloretin],inhibition at 5 µM,read-out: Replicate_1 (LOPAC screen with protease),8.32%
same,inhibition at 5 µM,read-out: Replicate_2 (LOPAC screen with protease),5.55%
same,inhibition at 5 µM,read-out: mean (LOPAC screen with protease),6.94%
COc1ccc(CCN(C)CCCC(C#N)(c2cc(OC)c(OC)c(OC)c2)C(C)C)cc1OC.Cl (racemic) [(±)-Methoxyverapamil hydrochloride],mean (LOPAC_screen_w_protease),[16],2.071
same,Replicate_1 (LOPAC_screen_w_protease),[14],2.317
same,Replicate_2 (LOPAC_screen_w_protease),[15],1.826
COc1cc(CC(=O)O)ccc1O [4-Hydroxy-3-methoxyphenylacetic acid],mean,[7],0.06748
same,Replicate_1,[8],3.737
same,Replicate_2,[9],-3.602
"Cn1c(=O)c2[nH]c(C3CCCC3)nc2n(C)c1=O [8-Cyclopentyl-1,3-dimethylxanthine]",mean,[7],0.2262
same,Replicate_1,[8],2.489
same,Replicate_2,[9],-2.037
Cl.NCC#Cc1ccccc1 [3-Phenylpropargylamine hydrochloride],mean,"sheet LOPAC_screen_w_protease, LOPAC1280 primary screen at 5 µM, with protease, mean of the two replicates",0.744
same,Replicate_1,[11],1.313
same,Replicate_2,[12],0.1753
OC[C@H]1NC[C@H](O)[C@@H](O)[C@@H]1O [1-Deoxynojirimycin hydrochloride],inhibition at 5 µM,[17],2.78%
same,inhibition at 5 µM,[18],4.02%
same,inhibition at 5 µM,[19],1.54%
Oc1cc(-c2ccccc2)nc2nc(Cl)ccc12,mean (LOPAC_screen_w_protease),[16],1.995
same,Replicate_1 (LOPAC_screen_w_protease),[14],0.8933
same,Replicate_2 (LOPAC_screen_w_protease),[15],3.097
O=c1n(CCCN2CCN(c3cccc(Cl)c3)CC2)nc2ccccn12 [Trazodone hydrochloride],inhibition at 5 µM,[17],2.86%
same,inhibition at 5 µM,[18],3.03%
same,inhibition at 5 µM,[19],2.69%
CCc1ccccc1OC[C@@H](O)CN[C@H]1CCCc2ccccc21.O=C(O)C(=O)O [SR 59230A oxalate],mean,[7],-0.0002221
same,Replicate_1,[8],1.088
same,Replicate_2,[9],-1.089
N#C/C(=C\c1ccc(O)c(O)c1)C(=O)N1CCc2ccccc21 [Tyrphostin AG 528],mean,"sheet LOPAC_screen_w_protease, primary screen of LOPAC1280 at 5 µM with protease, mean of the two replicates",3.92
same,Replicate_1,"sheet LOPAC_screen_w_protease, primary screen of LOPAC1280 at 5 µM with protease, replicate 1",3.707
same,Replicate_2,"sheet LOPAC_screen_w_protease, primary screen of LOPAC1280 at 5 µM with protease, replicate 2",4.133
O=C1c2c(O)cc(O)cc2O[C@H](c2ccc(O)c(O)c2)[C@H]1O (racemic) [(±)-Taxifolin],mean (LOPAC screen with protease),"sheet LOPAC_screen_w_protease, primary screen at 5 µM, mean of two replicates",7.529
same,Replicate_1 (LOPAC screen with protease),"sheet LOPAC_screen_w_protease, primary screen at 5 µM, replicate 1",9.2588
same,Replicate_2 (LOPAC screen with protease),"sheet LOPAC_screen_w_protease, primary screen at 5 µM, replicate 2",5.799
COc1ccccc1N1CCN(CC(O)COc2cccc3ccccc23)CC1.Cl.Cl (stereo not drawn) [Naftopidil dihydrochloride],mean,[1],6.057
same,Replicate_1,[2],7.362
same,Replicate_2,[3],4.753
CC(=O)[C@H]1CC[C@H]2[C@@H]3CC=C4C[C@@H](OS(=O)(=O)[O-])CC[C@]4(C)[C@H]3CC[C@]12C.[Na+] [Pregnenolone sulfate sodium],mean,"sheet LOPAC_screen_w_protease, LOPAC1280 at 5 µM, mean of two replicates",1.045
same,Replicate_1,"sheet LOPAC_screen_w_protease, LOPAC1280 at 5 µM, replicate 1",0.04623
same,Replicate_2,"sheet LOPAC_screen_w_protease, LOPAC1280 at 5 µM, replicate 2",2.043
COc1ccc2c(c1O)-c1cccc3c1[C@@H](C2)N(C)CC3.Cl [R(-)-Apocodeine hydrochloride],mean,[1],6.058
same,Replicate_1,[2],6.597
same,Replicate_2,[3],5.52
Cc1ccccc1CNc1ncnc2c1ncn2[C@@H]1O[C@H](CO)[C@@H](O)[C@H]1O [Metrifudil],inhibition at 5 µM,"sheet LOPAC_screen_w_protease, LOPAC1280 primary screen with protease, 5 µM compound, mean of the two replicates, read-out: mean",4.56%
same,inhibition at 5 µM,"sheet LOPAC_screen_w_protease, LOPAC1280 primary screen with protease, 5 µM compound, replicate 1, read-out: Replicate_1",4.09%
same,inhibition at 5 µM,"sheet LOPAC_screen_w_protease, LOPAC1280 primary screen with protease, 5 µM compound, replicate 2, read-out: Replicate_2",5.03%
CN1C[C@H](C(=O)N[C@]2(C)O[C@@]3(O)[C@@H]4CCCN4C(=O)[C@H](Cc4ccccc4)N3C2=O)C[C@@H]2c3cccc4[nH]cc(c34)C[C@H]21 [Dihydroergotamine methanesulfonate],inhibition at 5 µM,[20],2.09%
same,inhibition at 5 µM,[21],1.52%
same,mean (LOPAC_screen_w_protease),[16],1.805
CC(N)(C(=O)O)c1ccc(C(=O)O)cc1 (racemic) [(±)-alpha-Methyl-4-carboxyphenylglycine],mean,[1],4.794
same,Replicate_1,[2],3.648
same,Replicate_2,[3],5.939
C[C@]12C=CC(=O)C=C1CC[C@@H]1C2=CC[C@]2(C)[C@@H](C(=O)CN3CCN(c4cc(N5CCCC5)nc(N5CCCC5)n4)CC3)CC[C@@H]12.O=C(O)/C=C\C(=O)O [U-74389G maleate],mean,[7],-0.1973
same,Replicate_1,[8],-0.4551
same,Replicate_2,[9],0.0606
COc1ccc(/C=C/C(=O)Nc2ccccc2C(=O)O)cc1OC [Tranilast],inhibition at 5 µM,read-out: Replicate_1,0.566%
same,inhibition at 5 µM,read-out: Replicate_2,-2.13%
same,inhibition at 5 µM,read-out: mean,-0.784%
Clc1ccccc1C(c1ccccc1)(c1ccccc1)n1ccnc1 [Clotrimazole],inhibition at 5 µM,read-out: Replicate_1,3.08%
same,inhibition at 5 µM,read-out: Replicate_2,3.07%
same,inhibition at 5 µM,read-out: mean,3.07%
Cc1nc(N=Nc2ccc(C(=O)O)cc2)c(COP(=O)(O)O)c(C=O)c1O [MRS 2159],mean (LOPAC_screen_w_protease),[16],1.803
same,Replicate_1 (LOPAC_screen_w_protease),[14],1.948
same,Replicate_2 (LOPAC_screen_w_protease),[15],1.658
Clc1ccc(C(c2ccc(Cl)cc2)n2cc[n+](CC(OCc3ccc(Cl)cc3Cl)c3ccc(Cl)cc3Cl)c2)cc1 (stereo not drawn) [Calmidazolium chloride],inhibition at 5 µM,"sheet LOPAC_screen_w_protease, primary screen at 5 µM, mean of two replicates, read-out: mean (LOPAC screen with protease)",9.31%
same,inhibition at 5 µM,"sheet LOPAC_screen_w_protease, primary screen at 5 µM, replicate 1, read-out: Replicate_1 (LOPAC screen with protease)",8.14%
same,inhibition at 5 µM,"sheet LOPAC_screen_w_protease, primary screen at 5 µM, replicate 2, read-out: Replicate_2 (LOPAC screen with protease)",10.5%
O=C(O)CCCCCCCC(=O)O [Azelaic acid],inhibition at 5 µM,[4],0.767%
same,inhibition at 5 µM,[5],1.56%
same,inhibition at 5 µM,[6],-0.0221%
O=C(O)CCC(=O)N1CCC[C@H]1C(=O)O [N-Succinyl-L-proline],mean,[10],-1.024
same,Replicate_1,[11],1.826
same,Replicate_2,[12],-3.873
O=C(CCCN1CCC(O)(c2ccc(Cl)cc2)CC1)c1ccc(F)cc1 [Haloperidol],inhibition at 5 µM,[20],2.99%
same,inhibition at 5 µM,[21],0.623%
same,mean (LOPAC_screen_w_protease),[16],1.809
